Patent publication US12564568B2, “PKC pathway in Parkinson's Disease” (CEDARS-SINAI MEDICAL CENTER, priority 2018, dated 2026)
“Also recorded” adds a separate entry of the source.

Experiments:
[1] = system: LAMP1; assay: LAMP1 level in day 30 mDA cultures after PEP005 (western blot); format: cell-based, human
[2] = system: LC3; assay: LC3 level in day 30 DaNs after PEP treatment (western blot); format: cell-based, human; details: PD cells
[3] = system: cleaved caspase 3 (CC3); assay: Cleaved caspase 3 in mDA cultures over PEP005 time-course (western blot); format: cell-based, human; details: PD/EOSPD cultures, PEP005 treatment
Procedure: Western blot: Cells were gently scraped off the plates, washed with PBS, centrifuged at 15000 RPM for 1 min, and dry pellets were frozen at −80° C. Samples were then thawed and lysed using 1×NETN buffer (20 mM Tris-HCl (pH 8.0), 100 mM NaCl, 0.5 mM EDTA and 0.5% NP-40) supplemented with phosphatase/protease inhibitor cocktail (MS-SAFE, Sigma-Aldrich). Lysates were sonicated in an automated cold bath sonicator for 20 mins using alternating 10 sec pulses followed by 10 sec rests. Samples were centrifuged for 20 min at 4° C. at 15000 RPM. Total soluble protein concentrations were measured using a Bradford assay (BIO-RAD). 4× Laemmli sample buffer (BIO-RAD 161-0774) was added to either 100 μg or 50 μg of total protein extracts and samples were boiled for 5 min. […] Membranes were blocked with Odyssey blocking buffer (LI-COR) and then incubated with primary antibodies for overnight at 4° C. or room temperature for 3 hours. Following incubation with dye-labeled secondary antibodies for 2 hours at room temperature, signals were visualized using an Odyssey Fc imaging system (LI-COR). […] Combined α-synuclein and p-PKCα expression plots were calculated by first normalizing bands to β-actin, then to the 02iCTR signal present in each blot. […] ROC plot and area under the curve was determined using R package ROCR to determine predicative probability percentages.

[4] = system: DaN cultures; assay: LDH on drug treatment of DaN cultures; format: cell-based, human
From the text: It is likely that the toxicity of PEP is more specific to highly proliferative cells whereas the Inventors' differentiated neurons are largely post mitotoic.

[5] = system: TH; assay: TH gene expression over PEP005 time-course (qPCR); format: cell-based, human; details: roughly 8 hours after initial exposure
Procedure: qPCR: Total cellular RNA was isolated using TRIzol Reagent followed by Qiagen RNeasy Mini kit with DNase treatment. Total RNA (1 μg) was used for cDNA synthesis using the Quantitate Reverse Transcription Kit for cDNA synthesis for PCR (Qiagen). Real-time PCR was performed using the SYBR Green Supermix (BIO-RAD). The levels of expression of respective genes were normalized to corresponding GAPDH values and shown as fold change relative to the value of the control sample (ΔΔCt method)

[6] = system: TH; assay: Injection into the ventricles of WT mice, TH in striatum; format: in vivo, mouse; details: 0.3, 3, and 30 uM injected into ventricles of WT mice; 1 and 5 days post injection
Procedure: In vivo, PEP stimulates synuclein degradation. Dosage studies of 0.3, 3, and 30 uM PEP was injected into the ventricles of WT mice.

[7] = In vitro blood plasma binding, rat; format: in vitro ADME
From the text: (§1) This may complicate IV delivery.

[8] = In vitro blood plasma binding, rabbit; format: in vitro ADME
From the text: as §1

[9] = In vitro blood plasma binding, mini pig; format: in vitro ADME
From the text: as §1

[10] = In vitro blood plasma binding, human; format: in vitro ADME
From the text: as §1

[11] = IV bolus dose study, respiratory effects in rat; format: in vivo; details: doses up to 10 ug/kg
From the text: (§2) In multiple IV bolus dose studies, the following was observed.

[12] = IV bolus dose study, cardiovascular effects in mini-pig; format: in vivo; details: doses up to 5 ug/kg (highest tested)
From the text: as §2

[13] = Dose ranging study in mini-pig; format: in vivo; details: pigs
Procedure: For dose ranging studies in rat and mini-pig. Repeated doses up to 15 ug/kg/day for 7 days were tolerated in rats, 5 ug/kg in pigs

[14] = Repeat dose tox study in rats; format: in vivo, rat; details: up to 10 ug/kg/day for 7 days, IV tail vein injection
Procedure: (§3) In a repeat dose tox study in rats—animals were given up to 10 ug/kg/day for 7 days by IV tail vein injection. […] In a repeat dose tox study in mini-pigs—animals were given up to 5 ug/kg/day IV approximately 1×/week.

[15] = Repeat dose tox study in mini-pigs; format: in vivo, mini-pig; details: 5 ug/kg dose IV approximately 1x/week, intake recovered afterwards
Procedure: as §3

[16] = PK profile in mice after IV tail vein injection; format: in vivo, mouse; details: 10 and 50 ug/kg IV tail vein
Procedure: In a study to determine PK profile of PEP in mice—10 and 50 ug/kg were administered by IV tail vein injection. […] Again potentially problematic for IV delivery.

[17] = system: p-PKCα

For `C/C=C(/C)C(=O)O[C@H]1C(C)=C[C@]23C(=O)[C@@H](C=C(CO)[C@@H](O)[C@]12O)[C@H]1[C@@H](C[C@H]3C)C1(C)C` [PEP005, ingenol-3-angelate], the LAMP1 protein ([1]; PD cells treated with PEP005) was “does not appear to be replicated”, the LAMP1 protein ([1]; PD cells treated with PEP005, listed as PEP) was “neither LAMP1 nor LC3 respond” and the LAMP1 protein ([1]; control and PD cells / all iPSC lines, 1 μM PEP005 for 3 days) was “increase”. For the same compound, the LAMP1 protein ([1]; control cells treated with PEP005) was “increase”, the LC3 response [2] was “neither LAMP1 nor LC3 respond” and the “cleaved (active) caspase 3 (CC3)” value [3] was “marked decrease”. The “cleaved (active) caspase 3 (CC3)” value ([3]; listed as PEP) was “marked decrease”, the “LDH on drug treatment” value [4] was “nor do the Inventors see an increase” and the “TH expression (qPCR)” value [5] was “upregulated”. The “TH in mouse striatum” value [6] was “increase”, the plasma binding [7] was “highly efficient plasma binding” and the plasma binding [8] was “highly efficient plasma binding”. For the same compound, the plasma binding [9] was “highly efficient plasma binding”, the plasma binding [10] was “highly efficient plasma binding” and the respiratory effects [11] was “no biologically relevant responses”. The cardiovascular changes [12] was “no notable cardiovascular changes”, the “clinical or behavioral effects” value [12] was “no adverse clinical or behavioral effects” and the tolerated repeated dose [13] was ≤ 5 µg/kg. The tolerability [14] was “well tolerated”, the food intake [15] was “lower food intake the following day” and the serum concentration ([16]; 1 hour after) was “below detectable limits”. The clearance ([16]; >blood flow through the liver) was “very high clearance”, the “p-PKCα signal (western blot)” value ([17]; control and PD cultures / all iPSC lines, 1 μM PEP005 for 3 days) was “completely ablate; also recorded: completely ablating; also recorded: clearly ablated” and the “p-PKCα expression, dose response” value ([17]; dose response study, 172iPD mDA culture) was “clear dose-response relationship”. For the same compound, the “p-PKCα levels at low PEP005 doses” value ([17]; dose response study, low doses) was “did not alter”, the “time post dose at which pPKCα levels were still depressed” value ([17]; in vitro, single 24-hour dose) was ≥ 240 hours and the “time until p-PKCα is degraded in response to drug treatment” value ([17]; time-course, control and PD cultures) was ≤ 24 h.
